Measurements reported in ChEMBL document CHEMBL1201862, “PubChem BioAssay data set” (2004).
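In this assay, cells in 96-well plates receive the compound at five concentrations for 48 hours. Endpoints are linearly interpolated between the surrounding concentrations. GI50 = concentration required for 50% inhibition of growth.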 Activity calls are given as the source filed them. Rule as the data show it: active = GI50 up to about 1.1 µM and inactive = higher.

Key:
Assay in all cases: growth of human tumour cells (NCI), 48 h
RPMI-8226 = tested on: RPMI-8226
KM12 = tested on: KM12
SNB-78 = tested on: SNB-78
UO-31 = tested on: UO-31
M19-MEL = tested on: M19-MEL
OVCAR-3 = tested on: OVCAR-3
OVCAR-5 = tested on: OVCAR-5
OVCAR-4 = tested on: OVCAR-4
KM-20L2 = tested on: KM-20L2
HCC 2998 = tested on: HCC 2998
HOP-92 = tested on: HOP-92
LXFL 529 = tested on: LXFL 529
U-251 = tested on: U-251
SF-539 = tested on: SF-539
HL-60 = tested on: HL-60
NCI-H226 = tested on: NCI-H226
SK-MEL-28 = tested on: SK-MEL-28
OVCAR-8 = tested on: OVCAR-8
SF-268 = tested on: SF-268
MOLT-4 = tested on: MOLT-4
RXF 631 = tested on: RXF 631
XF498 = tested on: XF498
COLO 205 = tested on: COLO 205
UACC-62 = tested on: UACC-62
SR = tested on: SR
NCI-H23 = tested on: NCI-H23
HCT-15 = tested on: HCT-15
SF-295 = tested on: SF-295
SNB-75 = tested on: SNB-75
A549 = tested on: A549
SK-MEL-2 = tested on: SK-MEL-2
LOX IMVI = tested on: LOX IMVI
CAKI-1 = tested on: CAKI-1
786-0 = tested on: 786-0
HCT-116 = tested on: HCT-116
SW-620 = tested on: SW-620
UACC-257 = tested on: UACC-257
SNB-19 = tested on: SNB-19
Malme-3M = tested on: Malme-3M
M14 = tested on: M14
HT-29 = tested on: HT-29
HOP-62 = tested on: HOP-62
TK-10 = tested on: TK-10
NCI-H460 = tested on: NCI-H460
NCI-H522 = tested on: NCI-H522
K562 = tested on: K562
SN12C = tested on: SN12C
DLD-1 = tested on: DLD-1
SK-OV-3 = tested on: SK-OV-3
ACHN = tested on: ACHN
DMS-273 = tested on: DMS-273
IGROV-1 = tested on: IGROV-1
CCRF-CEM = tested on: CCRF-CEM
SK-MEL-5 = tested on: SK-MEL-5
EKVX = tested on: EKVX
MCF7 = tested on: MCF7
DMS-114 = tested on: DMS-114
MDA-MB-231 = tested on: MDA-MB-231
NCI/ADR-RES = tested on: NCI/ADR-RES
A498 = tested on: A498
RXF 393 = tested on: RXF 393
MDA-MB-435 = tested on: MDA-MB-435
HOP-18 = tested on: HOP-18
T47D = tested on: T47D
MDA-N = tested on: MDA-N
Hs-578T = tested on: Hs-578T
DU-145 = tested on: DU-145
BT-549 = tested on: BT-549
PC-3 = tested on: PC-3

With `Cc1ccc(OCC(=O)N2N=C(c3ccccc3)CC2(O)c2ccccc2)cc1` (configuration not stated) the GI50 (RPMI-8226) was 16.6 µM (inactive), the GI50 (KM12) was 99.5 µM (inactive) and the GI50 (SNB-78) was 22.1 µM (inactive). The GI50 (UO-31) was > 100 µM (inactive), the GI50 (M19-MEL) was 44.6 µM (inactive) and the GI50 (OVCAR-3) was 33.3 µM (inactive). For the same molecule, the GI50 (OVCAR-5) was 18.1 µM (inactive), the GI50 (OVCAR-4) was 18.5 µM (inactive) and the GI50 (KM-20L2) was 18 µM (inactive). The GI50 (HCC 2998) was > 100 µM (inactive), the GI50 (HOP-92) was 55.2 µM (inactive) and the GI50 (LXFL 529) was 19.3 µM (inactive). For the same molecule, the GI50 (U-251) was 13 µM (inactive), the GI50 (SF-539) was 43 µM (inactive) and the GI50 (HL-60) was 27.8 µM (inactive). The GI50 (NCI-H226) was 25.9 µM (inactive), the GI50 (SK-MEL-28) was 80 µM (inactive) and the GI50 (OVCAR-8) was 91.2 µM (inactive). For the same molecule, the GI50 (SF-268) was > 100 µM (inactive), the GI50 (MOLT-4) was 7.89 µM (inactive) and the GI50 (RXF 631) was 26.9 µM (inactive). The GI50 (XF498) was > 100 µM (inactive), the GI50 (COLO 205) was 28.2 µM (inactive) and the GI50 (UACC-62) was 43.4 µM (inactive). The GI50 (SR) was 9.44 µM (inactive), the GI50 (NCI-H23) was 22.6 µM (inactive) and the GI50 (HCT-15) was > 100 µM. The GI50 (SF-295) was 76 µM (inactive), the GI50 (SNB-75) was 55.3 µM (inactive) and the GI50 (A549) was 20.5 µM (inactive). The GI50 (SK-MEL-2) was > 100 µM (inactive), the GI50 (LOX IMVI) was 99.5 µM (inactive) and the GI50 (CAKI-1) was > 100 µM (inactive). The GI50 (786-0) was 16.4 µM (inactive), the GI50 (HCT-116) was > 100 µM (inactive) and the GI50 (SW-620) was 51.6 µM (inactive). For the same molecule, the GI50 (UACC-257) was > 100 µM (inactive), the GI50 (SNB-19) was > 100 µM (inactive) and the GI50 (Malme-3M) was > 100 µM (inactive). The GI50 (M14) was 34.4 µM (inactive), the GI50 (HT-29) was > 10 µM (inactive) and the GI50 (HOP-62) was 27.8 µM (inactive). The GI50 (TK-10) was > 100 µM (inactive), the GI50 (NCI-H460) was 15 µM (inactive) and the GI50 (NCI-H522) was > 100 µM (inactive). The GI50 (K562) was 20.2 µM (inactive), the GI50 (SN12C) was 17.3 µM (inactive) and the GI50 (DLD-1) was 27.9 µM (inactive). For the same molecule, the GI50 (SK-OV-3) was > 100 µM (inactive), the GI50 (ACHN) was > 100 µM (inactive) and the GI50 (DMS-273) was 20.8 µM (inactive). For the same molecule, the GI50 (IGROV-1) was 39.4 µM (inactive).

For `CCOC(=O)C1S(=O)(=O)OCCOS1(=O)=O`, the GI50 (RPMI-8226) was > 100 µM (inactive), the GI50 (KM12) was > 100 µM (inactive) and the GI50 (SNB-78) was > 100 µM (inactive). The GI50 (UO-31) was > 100 µM (inactive), the GI50 (M19-MEL) was > 100 µM (inactive) and the GI50 (OVCAR-3) was > 100 µM (inactive). For the same molecule, the GI50 (OVCAR-4) was > 100 µM (inactive), the GI50 (HCC 2998) was > 100 µM (inactive) and the GI50 (HOP-92) was > 100 µM (inactive). For the same molecule, the GI50 (LXFL 529) was > 100 µM (inactive), the GI50 (SF-539) was > 100 µM (inactive) and the GI50 (HL-60) was > 100 µM (inactive). The GI50 (CCRF-CEM) was > 100 µM (inactive), the GI50 (SK-MEL-28) was > 100 µM (inactive) and the GI50 (OVCAR-8) was > 100 µM (inactive). For the same molecule, the GI50 (SK-MEL-5) was > 100 µM (inactive), the GI50 (SF-268) was > 100 µM (inactive) and the GI50 (MOLT-4) was > 100 µM (inactive). The GI50 (RXF 631) was > 100 µM (inactive), the GI50 (XF498) was > 100 µM (inactive) and the GI50 (COLO 205) was > 100 µM (inactive). For the same molecule, the GI50 (UACC-62) was > 100 µM (inactive), the GI50 (SR) was > 100 µM (inactive) and the GI50 (NCI-H23) was > 100 µM (inactive). For the same molecule, the GI50 (SF-295) was > 100 µM (inactive), the GI50 (EKVX) was > 100 µM (inactive) and the GI50 (SNB-75) was > 100 µM (inactive). The GI50 (A549) was > 100 µM (inactive), the GI50 (SK-MEL-2) was > 100 µM (inactive) and the GI50 (LOX IMVI) was > 100 µM (inactive). The GI50 (CAKI-1) was > 100 µM (inactive), the GI50 (786-0) was > 100 µM (inactive) and the GI50 (HCT-116) was > 100 µM (inactive). The GI50 (SW-620) was > 100 µM (inactive), the GI50 (UACC-257) was > 100 µM (inactive) and the GI50 (SNB-19) was > 100 µM (inactive). For the same molecule, the GI50 (Malme-3M) was > 100 µM (inactive), the GI50 (M14) was > 100 µM (inactive) and the GI50 (HT-29) was > 100 µM (inactive). The GI50 (HOP-62) was > 100 µM (inactive), the GI50 (TK-10) was > 100 µM (inactive) and the GI50 (NCI-H522) was > 100 µM (inactive). The GI50 (K562) was > 100 µM (inactive), the GI50 (SN12C) was > 100 µM (inactive) and the GI50 (DLD-1) was > 100 µM (inactive). The GI50 (SK-OV-3) was > 100 µM (inactive), the GI50 (DMS-273) was > 100 µM (inactive) and the GI50 (IGROV-1) was > 100 µM (inactive).

In the case of `O=C1C=C(Br)c2c(-c3ccccc3)oc3cccc1c23`, the GI50 (RPMI-8226) is reported as > 39.3 µM (inactive), the GI50 (KM12) is reported as > 53 µM (inactive) and the GI50 (SNB-78) is reported as 35.6 µM (inactive). For the same molecule, the GI50 (UO-31) was > 61.2 µM (inactive), the GI50 (M19-MEL) was > 60.1 µM (inactive) and the GI50 (OVCAR-3) was > 57.1 µM (inactive). The GI50 (OVCAR-5) was > 100 µM (inactive), the GI50 (OVCAR-4) was 7.5 µM (inactive) and the GI50 (KM-20L2) was > 100 µM (inactive). The GI50 (HCC 2998) was 99.8 µM (inactive), the GI50 (HOP-92) was 25.4 µM (inactive) and the GI50 (MCF7) was 2.62 µM (inactive). For the same molecule, the GI50 (DMS-114) was 24.8 µM (inactive), the GI50 (LXFL 529) was > 65.2 µM (inactive) and the GI50 (U-251) was 18.4 µM (inactive). For the same molecule, the GI50 (SF-539) was 23.2 µM (inactive), the GI50 (HL-60) was 19.1 µM (inactive) and the GI50 (CCRF-CEM) was 7.48 µM (inactive). The GI50 (NCI-H226) was > 80.9 µM (inactive), the GI50 (SK-MEL-28) was > 93.5 µM (inactive) and the GI50 (OVCAR-8) was 58.2 µM (inactive). For the same molecule, the GI50 (SK-MEL-5) was 54.3 µM (inactive), the GI50 (MDA-MB-231) was 26.4 µM (inactive) and the GI50 (SF-268) was 20.2 µM (inactive). For the same molecule, the GI50 (MOLT-4) was > 41.5 µM (inactive), the GI50 (RXF 631) was 46.8 µM (inactive) and the GI50 (NCI/ADR-RES) was 48 µM (inactive). For the same molecule, the GI50 (A498) was > 75.7 µM (inactive), the GI50 (COLO 205) was > 63.1 µM (inactive) and the GI50 (UACC-62) was 38.1 µM (inactive). The GI50 (NCI-H23) was > 52.6 µM (inactive), the GI50 (RXF 393) was 23.6 µM (inactive) and the GI50 (HCT-15) was > 45.7 µM. For the same molecule, the GI50 (MDA-MB-435) was 17.1 µM (inactive), the GI50 (SF-295) was 22.9 µM (inactive) and the GI50 (HOP-18) was > 100 µM (inactive). For the same molecule, the GI50 (EKVX) was 25.4 µM (inactive), the GI50 (SNB-75) was 5.45 µM (inactive) and the GI50 (A549) was > 81.5 µM (inactive). The GI50 (SK-MEL-2) was 71.8 µM (inactive), the GI50 (LOX IMVI) was > 49 µM (inactive) and the GI50 (T47D) was 6.21 µM (inactive). The GI50 (CAKI-1) was > 76.9 µM (inactive), the GI50 (786-0) was 51.8 µM (inactive) and the GI50 (HCT-116) was 25.2 µM (inactive). The GI50 (SW-620) was > 100 µM (inactive), the GI50 (MDA-N) was 18.4 µM (inactive) and the GI50 (Hs-578T) was 29.3 µM (inactive). The GI50 (UACC-257) was > 100 µM (inactive), the GI50 (SNB-19) was 42.1 µM (inactive) and the GI50 (Malme-3M) was 72.3 µM (inactive). The GI50 (M14) was 54.5 µM (inactive), the GI50 (HT-29) was > 63.4 µM (inactive) and the GI50 (DU-145) was 31.6 µM (inactive). For the same molecule, the GI50 (HOP-62) was 34.4 µM (inactive), the GI50 (TK-10) was 38.1 µM (inactive) and the GI50 (NCI-H460) was 37.8 µM (inactive). The GI50 (NCI-H522) was 31.6 µM (inactive), the GI50 (BT-549) was > 100 µM (inactive) and the GI50 (K562) was > 50.9 µM (inactive). The GI50 (SN12C) was > 88.1 µM (inactive), the GI50 (DLD-1) was > 100 µM (inactive) and the GI50 (SK-OV-3) was 54.1 µM (inactive). For the same molecule, the GI50 (PC-3) was > 100 µM (inactive), the GI50 (ACHN) was 49 µM (inactive) and the GI50 (DMS-273) was > 42.9 µM (inactive). The GI50 (IGROV-1) was 32.3 µM (inactive).
